This note sets out measurements from US5730982A, “Therapeutic use of hypervariable region of monoclonal antibody M195 and constructs thereof” (Sloan-Kettering Institute for Cancer Research, priority 1995, dated 1998).

Each structure is given as a SMILES string.

For this assay, the system named is myeloid leukemic progenitor cells [CFU-GM-(L)] from AML patients. Briefly: Purging of fresh leukemic cells from AML patients, CFU-GM-(L) colony inhibition. It is filed as cell-based. The note with it: Homo sapiens, fresh leukemic cells from 4 patients with AML, 4-HC 100 uM/L, VP-16 5 ug/ml where combined. As to the method: We report the results of a preclinical study comparing four different purging protocols using promyelocytic human cell line HL-60 and myeloid leukemic progenitor cells [CFU-GM-(L)] from AML patients assayed in semisolid culture. We studied the antileukemic effect of 1] complement-dependent lysis by 2 different MoAbs (M195 and F23; 40 ug/ml), reactive with distinct antigens found on early myeloid cells and monocytes, used alone and in combinations; 2] 4-Hydroperoxycyclophosphamide (4-HC) (100 uM/L) alone or 3] combined with VP-16 (5 ug/ml) and 4] a cocktail of 1-3 protocols as above (ie combined immunochemotherapy). Four logs of HL-60 tumor cell elimination was observed after 1 hour incubation with both MoAbs plus 4-HC+VP-16 while the single treatment (ie immunotherapy or chemotherapy) provided 1.5 and 3.0 logs of colony forming inhibition respectively.
The combined treatment of MoAbs and 4-HC+VP-16 produced a 3-log reduction of CFU-GM-(L) colony formation. By comparison the mean recovery of committed normal bone marrow progenitors after incubation with MoAbs and complement was 19.5% for CFU-GM, 32.3% for BFU-E and 16.7% for CFU-MIX.

On to `O=P1(N(CCCl)CCCl)NC(OO)CCO1` (stereo not shown) [4-HC, 4-Hydroperoxycyclophosphamide], for which the inhibition at 100 µM is 95.5%.
